The values that follow come from patent US10294212B2 (CURADEV PHARMA PRIVATE LTD., priority 2013, dated 2019).

The target of assay [1] is Human indoleamine 2,3-dioxygenase1 (hIDO1) (Homo sapiens (Human), UniProt P14902). The assay can be described thus: In-vitro IDO1 enzyme assay (conversion of L-tryptophan to KYN). The class given is biochemical. Conditions: read-out: IC50 (IDO1) Enz. From the text: Human indoleamine 2,3-dioxygenasel (hIDO1) catalyzes the oxidative cleavage of the pyrrole ring of the indole nucleus of tryptophan to yield N-formylkynurenine which can be converted to kynurenine (KYN) by deformylation. hIDO1 with an N-terminal His tag, expressed and purified from E. coli cells was procured from either Enzo LifeScienccs, NY, USA). Unless otherwise stated, all materials were procured from Sigma Aldrich, Mo., USA.
Chain of Human indoleamine 2,3-dioxygenase1 (hIDO1) (P14902 whole entry): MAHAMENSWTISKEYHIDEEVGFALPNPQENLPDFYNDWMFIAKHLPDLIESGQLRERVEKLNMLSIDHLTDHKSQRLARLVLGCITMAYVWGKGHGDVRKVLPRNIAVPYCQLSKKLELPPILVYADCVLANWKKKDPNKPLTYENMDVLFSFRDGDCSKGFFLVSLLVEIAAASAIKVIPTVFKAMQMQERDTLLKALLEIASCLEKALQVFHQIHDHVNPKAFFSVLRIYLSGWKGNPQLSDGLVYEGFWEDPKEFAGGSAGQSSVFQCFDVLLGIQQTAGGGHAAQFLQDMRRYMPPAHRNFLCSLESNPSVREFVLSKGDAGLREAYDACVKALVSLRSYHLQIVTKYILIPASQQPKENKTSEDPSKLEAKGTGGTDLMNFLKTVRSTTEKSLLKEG
The assay monitoring the conversion of L-tryptophan to KYN was carried out as follows. hIDO1 (10 nM) was incubated with tryptophan (30 μM) in the presence of ascorbic acid (20 mM), methylene blue (10 μM) and catalase (100 μg/mL) in potassium phosphate buffer (50 mM; pH 6.5) at 37C for 30 min. The reaction was terminated with 30% trichloroacetic acid (TCA) and further incubated at 65C for 15 min to fully convert N-formylkynurenine to KYN. The reaction mixture was then centrifuged to remove sediments and the KYN in the supernatant was estimated by UV-visible absorption spectroscopy at 360 nm using a Waters HPLC system fitted with a C-18 column or by LC/MS/MS. See, Sono, 1980, J. Biol. Chem., 255:1339-1345, which is herein incorporated by reference.
Percent inhibition at each concentration of test compounds was determined by estimating the decrease in KYN with reference to the reaction control with 1% DMSO vehicle. Data were analyzed using nonlinear regression to generate IC50 values using Graph Pad Prism® 5.

The target of assay [2] is Human TDO (hTDO)-transfected CHO-K1 cells (Homo sapiens (Human), UniProt P48775). The assay can be described thus: CHO-K1 cell based TDO assay. The note with it: hTDO cellular assay. As for the experimental part:
Human TDO (hTDO)-transfected CHO-K1 cells were used to identify test compounds that inhibit TDO activity and reduce Kynurenine production. CHO-K1 cells (ATCC) were cultured in DMEM supplemented with sodium bicarbonate (2.1 g/L), HEPES (4.1 g/L), L-glutamine (2 mM), non-essential amino acid (84 mg/L) and fetal bovine serum (10%) and maintained at 95% humidity and 5% CO2 in a 37° C. incubator. The TDO gene (TDO2) (Accession number NM_005651.1) was purchased from Origene (USA) and stably expressed in CHO-Kl cells using the expression vector pcDNA4/Myc-HisB Hygro (Life Technologies, USA). TDO-expressing clones were identified based on the kynurenine production by the cells. Expanded clones were used for assay as described below. Unless otherwise stated, all materials were procured from Sigma.
hTDO transfected CHO-K1 cells (0.05 million/well) were seeded in a 96-well plate and maintained overnight in DMEM containing 10% FBS (200 μL) at 95% humidity and 5% CO2 in a 37° C. incubator. The following day, cells were washed and incubated with test compounds (typically 31 μM to 10 nM, final volume 150 μL) in Hanks Balanced Salt Solution (HBSS) containing 80 μM L-tryptophan for 2 hours. Supernatant (150 μL) from the cells was treated with 30% TCA ([…]) to precipitate proteins. Supernatants were further incubated at 65° C. for 15 min to convert N-formylkynurenine to kynurenine. KYN in the supernatant was measured by LC/MS/MS using an API4000 mass spectrometer (Applied Biosystems) coupled to a Shimadzu Prominence LC system fitted with a C18 column.
Percent inhibition of the test compounds was determined by measuring the decrease in KYN as compared to the reaction control (DMSO vehicle). IC50 values were calculated using Graph Pad Prism® 5 as described above.

SMILES strings stand for the structures.

Chain of Human TDO (hTDO)-transfected CHO-K1 cells (P48775 whole entry): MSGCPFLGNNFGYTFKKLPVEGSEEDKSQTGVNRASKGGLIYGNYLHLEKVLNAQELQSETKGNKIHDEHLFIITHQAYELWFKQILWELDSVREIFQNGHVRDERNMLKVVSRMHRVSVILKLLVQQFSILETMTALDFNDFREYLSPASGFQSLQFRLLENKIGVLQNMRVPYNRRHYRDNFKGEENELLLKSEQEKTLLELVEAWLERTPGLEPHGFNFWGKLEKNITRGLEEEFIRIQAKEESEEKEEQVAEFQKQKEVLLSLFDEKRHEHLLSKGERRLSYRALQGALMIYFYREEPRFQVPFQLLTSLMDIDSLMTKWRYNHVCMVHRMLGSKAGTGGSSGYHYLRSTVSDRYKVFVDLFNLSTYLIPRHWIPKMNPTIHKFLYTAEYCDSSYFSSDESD

Regarding `Nc1oc2cccnc2c1Nc1ccc(F)c(Cl)c1` [Compound 1, N^3-(3-chloro-4-fluoro-phenyl)-furo[3,2-b]pyridine-2,3-diamine], the IC50 in assay [1] is below 200 nM. With `Nc1oc2cnccc2c1Nc1ccc(C(F)(F)F)cc1` [Compound 6, N^3-(4-(Trifluoromethyl)phenyl)furo[2,3-c]pyridine-2,3-diamine], the IC50 in assay [2] is 500 to 2000 nM; in assay [1], above 1000 nM. As to `Nc1oc2cnccc2c1Nc1ccc(Cl)cc1Cl` [Compound 7, N^3-(2,4-Dichlorophenyl)furo[2,3-c]pyridine-2,3-diamine], the values for the 50% inhibitory concentration (IC50) in assay [2] and in assay [1] were above 2000 nM and above 1000 nM, respectively. For `Nc1oc2cnccc2c1Nc1ccc(N2CCOCC2)cc1` [Compound 11, N^3-(4-Morpholinophenyl)furo[2,3-c]pyridine-2,3-diamine], in that order: above 2000 nM and above 1000 nM. `Nc1oc2cnccc2c1Nc1cc(F)c(F)cc1F` [Compound 12, N^3-(2,4,5-Trifluorophenyl)furo[2,3-c]pyridine-2,3-diamine]: the IC50 in assay [2] is above 2000 nM; in assay [1] it was above 1000 nM. As to `Nc1oc2cnccc2c1Nc1ccc(Cl)cc1` [Compound 17, N^3-(4-Chlorophenyl)furo[2,3-c]pyridine-2,3-diamine], the IC50 is 500 to 2000 nM in assay [2] and above 1000 nM in assay [1]. As for `Nc1oc2cnccc2c1Nc1ccc(I)c(Cl)c1` [Compound 18, N^3-(3-Chloro-4-iodophenyl)furo[2,3-c]pyridine-2,3-diamine], the half-maximal inhibitory concentration (IC50) in assay [2] was 500 to 2000 nM; in assay [1], above 1000 nM. With `Nc1oc2cnccc2c1Nc1ccc(Cc2ccccc2)cc1` [Compound 23, N^3-(4-Benzylphenyl)furo[2,3-c]pyridine-2,3-diamine], the 50% inhibitory concentration (IC50) in assay [2] was 500 to 2000 nM; in assay [1], above 1000 nM. For `Nc1oc2cnccc2c1Nc1ccccc1N1CCCCC1` [Compound 24, N^3-(2-(Piperidin-1-yl)phenyl)furo[2,3-c]pyridine-2,3-diamine], in that order: above 2000 nM and above 1000 nM. On to `N#Cc1cccc(Nc2c(N)oc3cnccc23)c1F` [Compound 28, 3-((2-Aminofuro[2,3-c]pyridin-3-yl)amino)-2-fluorobenzonitrile], for which the IC50 in assay [2] was above 2000 nM; in assay [1] it was above 1000 nM. Taken in the same sequence, the figures for `Nc1oc2cnccc2c1Nc1ccc(Oc2ccccc2)cc1` [Compound 29, N^3-(4-Phenoxyphenyl)furo[2,3-c]pyridine-2,3-diamine] were above 2000 nM and above 1000 nM. Consider `Nc1oc2cnccc2c1Nc1ccc(F)cc1Cl` [Compound 30, N^3-(2-Chloro-4-fluorophenyl)furo[2,3-c]pyridine-2,3-diamine], for which the figures for the half-inhibitory concentration (IC50) in assay [2] and in assay [1] were 500 to 2000 nM and above 1000 nM, respectively. With `Nc1oc2cnccc2c1Nc1ccc(Cl)c(Cl)c1Cl` [Compound 31, N^3-(2,3,4-Trichlorophenyl)furo[2,3-c]pyridine-2,3-diamine], the IC50 in assay [2] is above 2000 nM; in assay [1], above 1000 nM. In the case of `CC(C)(C)c1cc(Nc2c(N)oc3cnccc23)cc(C(C)(C)C)c1` [Compound 32, N^3-(3,5-Di-tert-butylphenyl)furo[2,3-c]pyridine-2,3-diamine], the results for the IC50 in assay [2] and in assay [1] were 500 to 2000 nM and above 1000 nM, respectively. With `COc1ccc(Nc2c(N)oc3cnccc23)c(OC)c1` [Compound 34, N^3-(2,4-Dimethoxyphenyl)furo[2,3-c]pyridine-2,3-diamine], the IC50 in assay [2] was above 2000 nM; in assay [1] it was above 1000 nM. On to `C#Cc1ccc(Nc2c(N)oc3cnccc23)cc1` [Compound 36, N^3-(4-Ethynylphenyl)furo[2,3-c]pyridine-2,3-diamine], for which the concentration for half-maximal inhibition (IC50) in assay [2] is 500 to 2000 nM; in assay [1], above 1000 nM. Regarding `CC(C)Oc1cccc(Nc2c(N)oc3cnccc23)c1` [Compound 37, N^3-(3-Isopropoxyphenyl)furo[2,3-c]pyridine-2,3-diamine], the IC50 is above 2000 nM in assay [2] and above 1000 nM in assay [1]. Consider `COc1cc(Nc2c(N)oc3cnccc23)cc(OC)c1` [Compound 38, N^3-(3,5-Dimethoxyphenyl)furo[2,3-c]pyridine-2,3-diamine], for which the half-inhibitory concentration (IC50) in assay [1] was above 1000 nM.

For the compound `N#Cc1ccc(Nc2c(N)oc3cnccc23)cc1` [Compound 39, 4-((2-Aminofuro[2,3-c]pyridin-3-yl)amino)benzonitrile], the values for the half-inhibitory concentration (IC50) in assay [2] and in assay [1] were 500 to 2000 nM and above 1000 nM, respectively. For `CC(=O)c1ccc(Nc2c(N)oc3cnccc23)cc1` [Compound 41, 1-(4-((2-Aminofuro[2,3-c]pyridin-3-yl)amino)phenyl)ethanone], the IC50 was 500 to 2000 nM in assay [2] and above 1000 nM in assay [1].

Regarding `Nc1oc2cnccc2c1Nc1ccc(F)c(Cl)c1Cl` [Compound 45, N^3-(2,3-Dichloro-4-fluorophenyl)furo[2,3-c]pyridine-2,3-diamine], the half-inhibitory concentration (IC50) in assay [2] is above 2000 nM; in assay [1], above 1000 nM.

Regarding `Nc1oc2cnccc2c1Nc1cccnc1` [Compound 49, N^3-(Pyridin-3-yl)furo[2,3-c]pyridine-2,3-diamine], the results for the IC50 in assay [2] and in assay [1] were 500 to 2000 nM and above 1000 nM, respectively. `Nc1oc2cnccc2c1Nc1ccc(OC(F)(F)F)cc1` [Compound 50, N^3-(4-(Trifluoromethoxy)phenyl)furo[2,3-c]pyridine-2,3-diamine]: the IC50 was 500 to 2000 nM in assay [2] and above 1000 nM in assay [1]. On to `Nc1oc2cnccc2c1Nc1cncc(Cl)c1` [Compound 52, N^3-(5-Chloropyridin-3-yl)furo[2,3-c]pyridine-2,3-diamine], for which the values for the IC50 in assay [2] and in assay [1] were 500 to 2000 nM and above 1000 nM, respectively. `Nc1oc2cnccc2c1Nc1cccc(-c2ccccc2)c1` [Compound 53, N^3-([1,1′-Biphenyl]-3-yl)furo[2,3-c]pyridine-2,3-diamine]: the figures for the IC50 in assay [2] and in assay [1] were above 2000 nM and above 1000 nM, respectively. For the compound `Cc1ccc(Nc2c(N)oc3cnccc23)c(C)c1` [Compound 54, N^3-(2,4-Dimethylphenyl)furo[2,3-c]pyridine-2,3-diamine], the IC50 in assay [2] was 500 to 2000 nM; in assay [1], above 1000 nM. Taken in the same sequence, the figures for `Cc1ncc(CO)c2c(Nc3ccc(F)c(Cl)c3)c(N)oc12` [Compound 56, (2-amino-3-((3-chloro-4-fluorophenyl)amino)-7-methylfuro[2,3-c]pyridin-4-yl)methanol] were above 2000 nM and above 1000 nM.

Turning to `Nc1sc2ccc(-c3ccccc3)cc2c1Nc1ccc(F)c(Cl)c1` [Compound 134, N^3-(3-chloro-4-fluorophenyl)-5-phenylbenzo[b]thiophene-2,3-diamine], in assay [1], the IC50 was above 1000 nM. In the case of `O=C(Nc1oc2cnccc2c1N(C(=O)OCc1ccccc1)c1ccc(F)c(Cl)c1)OCc1ccccc1` [Compound 140, Benzyl (2-(((benzyloxy)carbonyl)amino)furo[2,3-c]pyridin-3-yl)(3-chloro-4-fluorophenyl)carbamate], in assay [1], the IC50 is above 1000 nM. For the compound `Nc1oc2c(-c3ccc(F)c(F)c3F)nccc2c1Nc1ccc(F)c(Cl)c1` [Compound 171, N^3-(3-Chloro-4-fluorophenyl)-7-(2,3,4-trifluorophenyl)furo[2,3-c]pyridine-2,3-diamine], in assay [1], the half-inhibitory concentration (IC50) was below 200 nM.

As for `Nc1sc2c(-c3cncc4ccccc34)cccc2c1Nc1ccc(F)c(Cl)c1` [Compound 281, N^3-(3-Chloro-4-fluorophenyl)-7-(isoquinolin-4-yl)benzo[b]thiophene-2,3-diamine], the concentration for half-maximal inhibition (IC50) in assay [2] was above 2000 nM.
